Laboratory results as given in US10689458B2, “Site specific HER2 antibody drug conjugates” (Pfizer Inc., priority 2015, dated 2020).
Entries after “also recorded” stand apart in the source; their conditions may differ. Read-outs that look alike come from different tables or passages of the source. Square brackets hold non-standard residues; d marks the D form. Peptide text beside a SMILES is read from it. * marks the point of attachment. Dolaproine = CO[C@@H]([C@@H]1CCCN1)[C@@H](C)C(=O)O; Dil = CC[C@H](C)[C@H](NC)[C@@H](CC(=O)O)OC; Doe = c1ccc(C[C@H](N*)c2nccs2)cc1; Aib = CC(C)(N)C(=O)O

Legend:
N87-TM cells = assay: Cytotoxicity on T-DM1 resistant cells made in vitro, population not specified (MTS, 4 days); assay type: cell-based; conditions: N87-TM versus N87-parental
Protocol: (§1) N87 cells were passaged into two separate flasks and each flask was treated identically with respect to the resistance-generation protocol to enable biological duplicates. […] The procedure was intended to simulate the chronic, multi-cycle (on/off) dosing at maximally tolerated doses typically used for cytotoxic therapeutics in the clinic, followed by a recovery period. […] Data were collected from various thawed cryopreserved populations derived from a single selection, over approximately 1-2 years after model development to ensure consistency in the results.
(§2) ADCs were prepared as indicated in Example 3. Unconjugated maytansine analog (DM1) and auristatin analogs were prepared by Pfizer Worldwide Medicinal Chemistry (Groton, Conn.). Other standard-of-care chemotherapeutics were purchased from Sigma (St. Louis, Mo.). Cells were seeded in 96-well plates at low density, then treated the following day with ADCs and unconjugated payloads at 3-fold serial dilutions at 10 concentrations in duplicate. Cells were incubated for 4 days in a humidified 37° C./5% CO2 incubator. The plates were harvested by incubating with CellTiter® 96 AQueous One MTS Solution (Promega, Madison, Wis.) for 1.5 hours and absorbance measured on a Victor plate reader (Perkin-Elmer, Waltham, Mass.) at wavelength 490 nm. IC50 values were calculated using a four-parameter logistic model with XLfit (IDBS, Bridgewater, N.J.).

[1] = tested on: T-DM1 resistant cells (N87-TDM); assay: Cytotoxicity on cells relapsed from T-DM1 treatment in vivo (CellTiter Glo, 96 hours); assay type: cell-based; conditions: for IC50: 96 h; for sensitivity of cells relapsed from T-DM1 treatment (in words): compared to parental N87
Protocol: (§3) Cells were incubated for 96 hours in a humidified 37° C./5% CO2 incubator.

parental N87 cells = assay: Cytotoxicity on parental N87 cells (CellTiter Glo, 96 hours); assay type: cell-based; conditions: free payload, N87 cell line, read-out: Sensitivity to free payload (IC50), N87
Protocol: as §3

N87 tumors = assay: In vivo efficacy on parental N87 tumors in NSG mice; set-up: species or system mouse; conditions: 6 and 10 mg/kg, Q4Dx4, N87 model
Protocol: Mice were injected subcutaneously in the right flank with suspensions of either N87 or N87-TM cells (7.5×10^6 cells per injection, with 50% Matrigel). Mice were randomized into study groups when tumors reached ˜0.3 g (˜250 mm^3). […] Tumors were measured weekly and mass calculated as volume=(width×width×length)/2. Time-to-event analysis (tumor doubling) was conducted and significance evaluated by Log-rank (Mantel-Cox) test.

N87 cells = conditions: read-out: IC80, payload concentration, approximate
Protocol: as §1, §2

N87 xenografts = assay: T-DM1 resistance generated in vivo in N87 xenografts and follow-on treatment; set-up: species or system mouse; conditions: […] weekly, n=20
Protocol: Tumors were measured twice per week or weekly and mass calculated as volume=(width×width×length)/2.

[2] = tested on: 144580 breast patient-derived xenografts; conditions: all doses tested (1, 5, 3 and 6 mg/kg), IV Q4dx4
Protocol: (§4) For each model described below the first dose was given on Day 1. The tumors were measured at least once a week and their volume was calculated with the formula: tumor volume (mm^3)=0.5× (tumor width^2)(tumor length). The mean tumor volumes (±S.E.M.) for each treatment group were calculated having a maximum of 8-10 animals and a minimum of 6-8 animals to be included.
The 144580 breast patient-derived xenografts were subcutaneously passaged in vivo as fragments from animal to animal in nude (Nu/Nu) female mice. When the tumors reached a volume of 150 to 300 mm^3, they were staged to ensure uniformity of the tumor size among various treatment groups.

[3] = tested on: N87 cell line xenograft tumors; assay: Bystander effect, immunohistochemistry (human IgG, pHH3) of N87 xenograft tumors; assay type: in vivo, mouse; conditions: single dose, T-DM1 6 mg/kg or T-vc0101 3 mg/kg, 96 hours
Description: Tumor sections were stained for human IgG to detect ADC bound to tumor cells and phospho-histone H3 (pHH3) to detect mitotic cells as a readout of the proposed mechanism of action for the payloads of both ADCs.

[4] = tested on: GA0044 patient-derived xenografts; assay: GA0044 patient-derived gastric cancer xenograft model; assay type: in vivo, mouse; conditions: IV Q4dx4, dose not stated
[5] = tested on: 37622 patient-derived xenografts; conditions: 10 mg/kg, IV Q4dx4
Protocol: as §4
Several ADCs were tested in patient-derived Non-Small Cell Lung Cancer xenograft model of 37622 obtained in accordance with appropriate consent procedures. The 37622 patient-derived xenografts were subcutaneously passaged in vivo as fragments from animal to animal in nude (Nu/Nu) female mice. When the tumors reached a volume of 150 to 300 mm^3, they were staged to ensure uniformity of the tumor size among various treatment groups.

N87 gastric xenografts = assay: N87 gastric xenograft model; assay type: in vivo, mouse; conditions: IV Q4dx4
Protocol: as §4
When the tumors reached a volume of 250 to 450 mm^3, the tumors were staged to ensure uniformity of the tumor mass among various treatment groups.

JIMT-1 breast xenografts = conditions: even at 6 mg/kg, IV Q4dx4
Protocol: as §4
To generate xenografts, nude (Nu/Nu) female mice were implanted subcutaneously with 5×10^6 JIMT-1 cells (DSMZ # ACC-589) in 50% Matrigel (BD Biosciences). When the tumors reached a volume of 200 to 250 mm^3, the tumors were staged to ensure uniformity of the tumor mass among various treatment groups.

[6] = tested on: Her2-expressing cell lines BT474 and SKBR3; assay: ADCC assay (LDH release, NK-92 or human PBMC effector cells); assay type: cell-based; conditions: 1 μg/ml antibody or ADC, 6 hours
Protocol: In ADCC assays, Her2-expressing cell lines BT474 and SKBR3 were used as target cells while NK-92 cells (an interleukin-2 dependent natural killer cell line derived from peripheral blood mononuclear cells from a person by Conkwest) or human peripheral blood mononucleocytes (PBMC) isolated from the freshly drawn blood from a healthy donor (#179) were used as effector cells.
Target cells (BT474 or SKBR3) of 1×10^4 cells/100 μl/well were placed in 96-well plate and cultured overnight in RPMI1640 media at 37° C./5% CO2. […]
Assay plates were incubated at 37° C./5% CO2 for 6 hours and then equilibrated to room temperature. LDH release from cell lysis was measured using CytoTox-One™ reagent at an excitation wavelength of 560 nm and an emission wavelength of 590 nm. […]
“Experimental” corresponds to the signal measured in one of the condition described above.
“Effector spontaneous” corresponds to the signal measured in the presence of PBMC alone.
“Target spontaneous” corresponds to the signal measured in the presence of target cells alone.
“Target Maximum” corresponds to the signal measured in the presence of detergent-lysed target cells alone.

[7] = read-out: Sensitivity to free payload (IC50), N87-T-DM1_Ms2
[8] = read-out: Sensitivity to free payload (IC50), N87-T-DM1_Ms7
[9] = read-out: Sensitivity to free payload (IC50), N87-T-DM1_Ms17

| Molecule | sensitivity of N87-TM cells (in words) (N87-TM cells) | IC50 [1, 7] [nM] | IC50 [1, 8] [nM] | IC50 [1, 9] [nM] | sensitivity of cells relapsed from T-DM1 treatment (in words) [1] | IC50 (parental N87 cells) [nM] | other results |
| --- | --- | --- | --- | --- | --- | --- | --- |
| COc1cc2cc(c1Cl)N(C)C(=O)C[C@H](OC(=O)[C@H](C)N(C)C(=O)CCS)[C@]1(C)O[C@H]1[C@H](C)[C@@H]1C[C@@](O)(NC(=O)O1)[C@H](OC)/C=C/C=C(\C)C2 [DM1] | retained sensitivity | – | – | – | – | – | – |
| COc1cccc2c1C(=O)c1c(O)c3c(c(O)c1C2=O)C[C@@](O)(C(=O)CO)C[C@@H]3O[C@H]1C[C@H](N)[C@H](O)[C@H](C)O1 [doxorubicin] | lack of cross-resistance | 46 | 79 | 34 | No resistance | 48 | – |
| CC[C@H](C)[C@@H]([C@@H](CC(=O)N1CCC[C@H]1[C@H](OC)[C@@H](C)C(=O)N[C@@H](Cc1ccccc1)c1nccs1)OC)N(C)C(=O)[C@@H](NC(=O)C(C)(C)N)C(C)C [compound 0101, 2-methylalanyl-N-[(3R,4S,5S)-3-methoxy-1-{(2S)-2-[(1R,2R)-1-methoxy-2-methyl-3-oxo-3-{[(1S)-2-phenyl-1-(1,3-thiazol-2-yl)ethyl]amino}propyl]pyrrolidin-1-yl}-5-methyl-1-oxoheptan-4-yl]-N-methyl-L-valinamide] (H-[Aib]V[Dil][Dolaproine]-Doe) | retained sensitivity | – | – | – | surprisingly sensitive; also recorded: not resistant | – | – |
| CC(=O)O[C@H]1C(=O)[C@@]2(C)[C@H]([C@H](OC(=O)c3ccccc3)[C@]3(O)C[C@H](OC(=O)[C@H](O)[C@@H](NC(=O)c4ccccc4)c4ccccc4)C(C)=C1C3(C)C)[C@]1(OC(C)=O)CO[C@@H]1C[C@@H]2O [paclitaxel] | lack of cross-resistance | – | – | – | – | – | – |
| T-DM1 | – | – | – | – | resistant | – | mice in which tumor doubling was prevented for at least 60 days (N87 tumors): > 50%; IC80 (N87 cells): ~10 nM; mice that responded to initial T-DM1 treatment (N87 xenografts): 17 out of 20; tumor response [2]: ineffective; location of the majority of pHH3 positive tumor cells [3]: located near the ADC; tumor growth compared to vehicle [4]: no appreciable difference in tumor growth as compared to vehicle treated tumors; tumor response [5]: only provided some therapeutic benefit; tumor response (N87 gastric xenografts; 10 mg/kg): complete regression of tumors; tumor response (N87 gastric xenografts; 1 and 3 mg/kg): delayed tumor growth; tumor response (JIMT-1 breast xenografts): inactive; ADCC activity (in words) [6]: conform the reported ADCC activities |
| CC[C@H](C)[C@@H]([C@@H](CC(=O)N1CCC[C@H]1[C@H](OC)[C@@H](C)C(=O)N[C@@H](Cc1ccccc1)c1nccs1)OC)N(C)C(=O)[C@@H](NC(=O)C(C)(C)N)C(C)C [Aur-0101] (H-[Aib]V[Dil][Dolaproine]-Doe) | – | 0.4 | 0.6 | 0.28 | – | 0.5 | – |
